One assay deals with PC3 (prostate). The assay can be described thus: Anti-proliferative activity against PC3 prostate cancer cells. The class given is cell-based. The settings on record: 72 h exposure. As to the method: (§1) The ability of compounds of the invention to inhibit the proliferation of cancer cells representative of non-small cell lung cancer and ovarian cancer (Table 2), pancreatic cancer, colorectal cancer and prostate cancer (Table 3) was assessed. Briefly, a predetermined number of cells as calculated from cell growth assays for each of the cell lines employed were seeded into their respective culture medium (using ATCC culture parameters—http://www.atcc.org) and cultured for 24 h at 37° C. and 5% CO2 in 96-well culture plates. Once attached, each cell line was then exposed to various concentrations of each respective analogue (30, 10, 3, 1, 0.3 and 0.1 μM), cultured for a further 72 h and exposed to Cell-Titre luminescent reagent (100 μL/well) for a further 30 min. Luminescence was captured using an EnVision multilabel reader and the data for each analogue concentration compared against no treatment control. Cell viability was normalised to control (vehicle alone) and dose response curves, and half maximal effective concentration (EC50) values were determined using Graph Pad Prism 6 (nonlinear regression sigmoidal dose-response variable slope).

In assay [1] the test system is SK-N-SH neuroblastoma cells. In words: Anti-proliferative activity (MTS assay) against SK-N-SH neuroblastoma cells. The class given is cell-based. The settings on record: Homo sapiens, SK-N-SH, 72 h. The procedure: The ability of compounds of the disclosure to inhibit the proliferation of SK-N-SH neuroblastoma cells was also assessed. […] Cell viability was normalised to control (vehicle alone) and dose response curves and IC50 values (Table 4) were determined using Graph Pad Prism 6.
For orientation: Tetrazolium assays rely on reduction of a dye to a coloured formazan, in cell work by metabolically active cells.

Another assay deals with A2780 (ovarian). In words: Anti-proliferative activity (Cell-Titre luminescence) against A2780 ovarian cancer cells. The settings on record: Homo sapiens, A2780, 72 h, 72 h exposure, Cell-Titre luminescent reagent. It is filed as cell-based. In a few lines: (§2)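 EC50 derived by nonlinear variable-slope sigmoidal fit of luminescent Cell-Titre viability, normalised to vehicle control. Compound (0.1–30 μM, six concentrations) applied for 72 h after 24 h attachment at 37 °C, 5% CO2.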

Assay [2] relates to Tpm3.1-containing actin microfilaments. The assay can be described thus: Disruption of Tpm3.1-containing actin microfilaments in SK-N-SH cells (imaging and quantitation). Conditions: SK-N-SH cells expressing Tpm3.1-mCherry, 24 hours, two concentrations. The class given is cell-based. As to the method:
The ability of compounds 57, 87 and 92 to disrupt Tpm3.1-containing actin microfilaments was investigated in SK-N-SH neuroblastoma cells that express Tpm3.1 labelled with the mCherry fluorophore. Cells were seeded at 3×10^4 cells per well in a volume of 1000 μL complete media onto a 12 well plate containing 13 mm coverslips and left to plate down for 24 hours prior to treatment. Cells were then treated with DMSO and two concentrations of the test compounds. 24 hours post-treatment, cells were fixed with 16% paraformaldehyde (PBS) and stained with 488-Atto-Phalloidin to visualise the actin filament bundles. Single plane images were obtained using the Olympus IX83 epi-fluorescence microscope. Ten fields of view were collected for both Tpm3.1 mCherry fluorophore (FIG. 4) and 488-Atto-Phalloidin (FIG. 5) with each treatment condition.
Quantitation of either Tpm3.1 mCherry filaments or 488-Atto-Phalloidin filaments was performed using ImageJ 1.52p software (ImageJ, NIH). The mean pixel intensity from a cell was measured by using a line across the entire cell cytoplasmic area above or below the nuclear region. The line was made to cross the filament bundles at a […] for the measurement rather than run along a single filament. A total of n=100 cells were measured from ten fields of view. Cells with pixel intensities that were more than twice the average intensity in the field were excluded from the measurement. The mean pixel intensity from n=100 cells was imported into Microsoft Excel to obtain the average intensity of either Tpm3.1 mCherry filaments or 488-Atto-Phalloidin filaments from each treatment condition. Values were normalised as a percent of the 0 μM control in order to generate a bar graph.

Another assay concerns A549 (NSCLC). The assay can be described thus: Anti-proliferative activity (Cell-Titre luminescence) against A549 non-small cell lung cancer cells. The settings on record: Homo sapiens, A549, 72 h, 72 h exposure, Cell-Titre luminescent reagent. It is filed as cell-based. In a few lines:
as §2

For the next assay, the system named is MIA PaCa-2 (pancreatic). The assay can be described thus: Anti-proliferative activity against MIA PaCa-2 pancreatic cancer cells. It is filed as cell-based. Conditions: Homo sapiens, 72 h exposure. As to the method: as §1
The next assay has as its system Caco-2 (colorectal). In words: Anti-proliferative activity against Caco-2 colorectal cancer cells. The class given is cell-based. The settings on record: Homo sapiens, 72 h exposure. As to the method: as §1
Assay [3] has as its system A2780 ovarian cancer cells. In words: cells. Conditions: Homo sapiens, A2780, 72 h, read-out: IC50 values used for the dose matrix (compounds).
Method: (§3) The A2780 cell line was maintained as a monolayer in Dulbeccos Modified Eagles medium (DMEM) supplemented with 10% foetal bovine serum (FBS) and grown at 37° C. in a humidified atmosphere with 5% CO2. […] Each screening plate contained one 6×6 dose matrix for two drugs using two-fold dilution steps. […] Viability was measured after 72 hours using a standard MTS assay.
(§4) Synergistic drug interactions were determined for each pairwise drug combination by applying the Bliss-independence model that assumes independence of drug mechanisms.
(§5) The Bliss additivism model was used to calculate a predicted combined response C to two single agents with responses A and B (using GI values), as follows:
(§6) The final score for any combination was reported as the difference between the value predicted by the additive model and the experimentally observed value, normalised to 100. Using GI values the maximum possible synergy score is 100, with 0 indicating no synergy and negative indicating possible antagonism. Scores were also reported as a “Max synergy” score, which is the highest individual synergy score for each combination matrix, and a “Total synergy” score, which was obtained by summation of each individual synergy score for the matrix.
The subject of assay [4] is A2780 ovarian cancer cells. The settings on record: Bliss score; for Paclitaxel Max. Synergy / Paclitaxel Total Synergy: combination with paclitaxel; for Paclitaxel Max. Synergy / Vinorelbine Max. Synergy: highest individual score of 6×6 matrix; for Paclitaxel Total Synergy / Vinorelbine Total Synergy: sum over matrix; for Vinorelbine Max. Synergy / Vinorelbine Total Synergy: combination with vinorelbine.
Method: as §3, §4, §5, §6

The target of assay [5] is T1, Tpm3.1 (Homo sapiens, UniProt P06753). The assay can be described thus: Circular dichroism spectroscopy, thermal unfolding of Tpm3.1 peptides. Conditions: test compound 100 μM, peptide 20 μM, CD at 222 nm. The class given is binding. Also on record: N-terminus (residues 2-80 with an initial Ala-Gly dipeptide to mimic N-terminal acetylation) of Tpm3.1; Peptides corresponding to the C-terminus (residues 139-248) and N-terminus; made in house. The procedure: The interactions of compounds 11, 13, 32 and 92 with the N-terminus and overlap region of Tpm3.1 were measured using circular dichroism (CD) spectroscopy (see FIG. 1). Peptides corresponding to the C-terminus (residues 139-248) and N-terminus (residues 2-80 with an initial Ala-Gly dipeptide to mimic N-terminal acetylation) of Tpm3.1 were prepared as described in the literature (Janco et al., 2019). CD spectra and thermal unfolding isotherms of N_82AA_Tpm3.1 and C_109AA_Tpm3.1 peptides were acquired on a Chirascan Plus CD Spectrometer (Applied Photophysics Limited, U.K.) in stoppered 0.5 mm cuvettes (48/Q/0.5; Starna Scientific Ltd.). Proteins were dialyzed O/N against 10 mM NaH2 PO4, 150 mM NaCl, 75 μM TCEP (added prior to experiment), 1% (v/v) acetonitrile pH 7 buffer. Final concentration of peptides was 20 μM. Tpm samples containing the test compound (100 μM) were incubated at 37° C. O/N. CD spectra were measured from 195 to 260 nm with a 1 nm step size and a […], taking 3 to 4 averages at 37° C. The thermal unfolding was carried at 222 nm over the range 20-85° C. at the rate of 1° C./min. Sample was cooled down to the initial temperature and heating procedure was repeated 2 to 3 times. To obtain information of the major thermal transitions from individual isotherms, data were further smoothed by the Savitzky-Golay method (5-point window), differentiated and then fitted to multiple Gaussian peaks as described previously (Janco et al., 2012) (FIG. 2).
Target sequence in this assay (P06753 with tags, fused parts or gaps isoform P06753-2): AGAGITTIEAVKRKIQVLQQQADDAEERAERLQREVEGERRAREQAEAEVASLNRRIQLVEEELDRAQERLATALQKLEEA
Background: CD spectra are sensitive to the conformation of chiral molecules.

Assay [6] has as its target T1, Tpm3.1. In words: Actin depolymerisation assay. It is filed as biochemical. The settings on record: 50 μmol/L test compound, pyrene-labelled F-actin, 160 minutes. The procedure:
A 12 μmol/L solution of labelled F-actin was prepared by polymerising the monomeric actin (35% pyrene labelled Rabbit Muscle (Cytoskeleton Inc)) into filaments in the presence of buffer T (100 mmol/L NaCl; 10 mmol/L Tris HCl pH 7.5; 2 mmol/L MgCl2; 1 mmol/L EGTA; 0.5 mmol/L DTT) with added ATP (0.2 mmol/L), for 1 hour in the dark at room temperature. Tpm3.1 (10 μmol/L) was reduced in buffer T containing 1 mmol/L DTT at 70° C. for 6 minutes and centrifuged at 60,000 rpm for 30 minutes to remove nonreduced dimers. […] Duplicate samples were diluted 12-fold using an F-actin polymerisation buffer (100 mmol/L NaCl; 10 mmol/L Tris HCl pH 7; 2 mmol/L MgCl2; 1 mmol/L EGTA; 0.2 mmol/L ATP; 1 mmol/L DTT) and the depolymerisation rates of F-actin alone, F-actin/Tpm3.1, and the F-actin/Tpm3.1/test compound filament complex were measured using a Costar 3915 fluorescence plate reader (407 nm) at 36-second intervals for 160 minutes at room temperature. Data were normalized to the initial fluorescence value and polymerisation curves of duplicate samples were fitted to a two-phase exponential decay model using OriginPro 9.1 (OriginLab) (FIG. 3A). Percent polymerisation was determined at t160 as a function of to (100%) (FIG. 3B, p<0.0001).
Target sequence in this assay (P06753 1-248 isoform P06753-2): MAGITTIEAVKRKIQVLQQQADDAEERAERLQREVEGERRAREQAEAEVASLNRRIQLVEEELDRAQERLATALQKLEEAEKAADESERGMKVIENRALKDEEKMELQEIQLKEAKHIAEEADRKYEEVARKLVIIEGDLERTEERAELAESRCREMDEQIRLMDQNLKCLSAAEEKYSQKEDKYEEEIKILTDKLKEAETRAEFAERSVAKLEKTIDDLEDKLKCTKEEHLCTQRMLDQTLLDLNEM

For the compound `CCc1ccc(CCNc2nc(NCCN3CCN(C)CC3)c3ccccc3n2)cc1` [Compound 57, N^2-(4-ethylphenethyl)-N^4-(2-(4-methylpiperazin-1-yl)ethyl)quinazoline-2,4-diamine], the IC50 is 1.48 µM in the assay with PC3 (prostate); 1.11 µM in assay [1]; 0.655 µM in the assay with A2780 (ovarian); 1.53 µM in the assay on A549 (NSCLC); 1.02 µM with MIA PaCa-2 (pancreatic); 1.12 µM in the assay with Caco-2 (colorectal). In [2], the “Disruption of Tpm3.1-containing actin microfilaments” value (from here on “Disruption”) is on record as “disrupt Tpm3.1-containing actin microfilaments in a dose-dependent manner”.
As for `Fc1cccc(CCNc2nc(NCCc3c[nH]cn3)c3ccccc3n2)c1` [Compound 87, N^4-(2-(1H-imidazol-4-yl)ethyl)-N^2-(3-fluorophenethyl)quinazoline-2,4-diamine], the IC50 with PC3 (prostate) worked out at 4.12 µM; in assay [1], 1.38 µM; in assay [3], 3000 nM; in the assay with A2780 (ovarian), 2.6 µM; with A549 (NSCLC), 2.36 µM; in the assay on MIA PaCa-2 (pancreatic), 2.75 µM. Also, in the assay on Caco-2 (colorectal), 4.33 µM corresponded to half-maximal inhibition (IC50). Further, the “Disruption” value in [2] is listed as “disrupt Tpm3.1-containing actin microfilaments in a dose-dependent manner”. The “Paclitaxel Max. Synergy” value in [4] is 9.54. Moreover, the “Paclitaxel Total Synergy” value in [4] is 28.53. Also, the “Vinorelbine Max. Synergy” value in [4] is on record as 24.46. In addition, in [4], the “Vinorelbine Total Synergy” value was 160.51.
Regarding `OCCCNc1nc(NCCc2cccc(C(F)(F)F)c2)nc2ccccc12` [Compound 92, 3-((2-((3-(trifluoromethyl)phenethyl)amino)quinazolin-4-yl)amino)propan-1-ol], at Tpm3.1 [5], the “Effect on melting profile of the Tpm3.1 N-terminal peptide construct” value is “alter the melting profile”. The “Effect on stability of the Tpm3.1 N-terminal peptide” value on Tpm3.1 [5] is on record as “decrease the stability”. Moreover, the IC50 in the assay on PC3 (prostate) came to 4.49 µM; in [1] it was 2 µM; in assay [3], 5000 nM; in the assay with A2780 (ovarian), 2.22 µM; in the assay with A549 (NSCLC) it was 1.3 µM; with MIA PaCa-2 (pancreatic), 3.19 µM. The compound also came in with an IC50 with Caco-2 (colorectal) of 2.48 µM. Also, the “Disruption” value in assay [2] is on record as “disrupt Tpm3.1-containing actin microfilaments in a dose-dependent manner”. In addition, the “Inhibition of Tpm3.1 protection of actin filaments from depolymerisation” value at Tpm3.1 [6] was “inhibit the ability of Tpm3.1 to protect actin filaments from depolymerisation”. The “Paclitaxel Max. Synergy” value in assay [4] was found to be 17.97. Besides, the “Paclitaxel Total Synergy” value in assay [4] is 100.06. Moreover, the “Vinorelbine Max. Synergy” value in [4] turned out to be 27.55. Also, the “Vinorelbine Total Synergy” value in [4] came to 204.68.

The IC50 is the concentration that inhibits the measured activity by half.

Values taken from patent US20230339866A1, “Quinazoline compounds and the use thereof in the treatment of cancer” (TROBIO THERAPEUTICS PTY LTD, priority 2020, published 2023).
